Experiments:
[1] = test system: G. vaginalis G71; test: anti-Gardnerella activity of film dispersions, micromethod (CSLI M45); format: cell-based, Gardnerella vaginalis; parameters: key: −: absence of bacterial growth; +: presence; conditions: lactic acid used for the preparation of formulations (control)
Procedure: (§1) In an embodiment, the antibacterial activity of chitosan films was tested against two Gardnerella vaginalis clinical strains, this being the pathogen most frequently associated with vaginal bacteriosis. […] The antibacterial activity was tested according to the CSLI M45 standard. Controls were performed with VFS and the lactic acid used for the preparation of formulations, as well as growth controls of strains and sterility of the culture medium used. All tests were performed in duplicate. Plates were observed concerning the presence or absence of bacterial growth after 48 h of growth at 37° C. Table 3 represents the results obtained indicating the marked activity of the film since no bacterial growth occurs for 1:4 dilution (second sequential dilution) of the film dispersion in 3 mL of water and VFS. […] The test was performed after incubation of the wells containing the tissue with maintenance medium (commercial), at 37° C. with 5% CO2 atmosphere, in accordance with the recommendations of the supplier. After the incubation period, 17 mg of film were placed over the tissue in each well and added of […] of PBS to allow for dispersion. After the 12 h incubation period, cellular viability was assessed by the MTT test (n=2 wells) and histological analysis was performed. […] Since this formulations was developed to treat an infection, being toxic to bacteria, it wouldn't be expected to totally innocuous for the human tissue. Biocompatibility of chitosan with human tissue has been described and the lactic acid used in this formulation was selected due to the natural occurrence in the vagina. On the other hand, the fact that this formulation is intended for short term treatments, in an altered vaginal environment due to the presence of pathogens, can influence the final effect of the formulation in the tissue of the host.

[2] = test system: G. vaginalis G19; test: as above; format: cell-based, Gardnerella vaginalis; parameters: key: −: absence of bacterial growth; +: presence; conditions: lactic acid used for the preparation of formulations (control)
Procedure: as §1

Measured: bacterial growth

CC(O)C(=O)O (stereo not shown) [Lactic acid, lactic acid]
−: [1]; dilution 1:2 | [1]; dilution 1:4 | [2]; dilution 1:2 | [2]; dilution 1:4
